One molecule from patent US20040132751A1, “Use of desoxypeganine for treating central nervous system symptoms resulting from intoxications by psychotrops” (priority 2001, published 2004) can be followed below.

This assay relates to rats. The experiment in a line: animal experiments: recovery of cognitive abilities in rats after administration of deoxypeganine. Format: in vivo. The note with it: restoration did not occur, or occurred only considerably later, in untreated control animals.

For `c1ccc2c(c1)CN1CCCC1=N2` [deoxypeganine, 1,2,3,9-tetrahydropyrrolo[2,1-b]quinazoline], the “recovery of cognitive abilities” value was “able to bring about a recovery of cognitive abilities”.
